# Test results taken from patent EP1285918A1, “C7 Ester substituted taxanes as antitumor agents” (Florida State University Research Foundation, Inc., priority 2001, dated 2003).
# Where two headings read alike, the source gives them in different places.
# Key:
# [1] = test system: DU 145 Human Prostate Carcinoma Xenografts; settings: DU145
# Method: (§1) Other antitumor compounds were similarly formulated. […] The dosing volume was 0.3 ml per 20 g mouse.
# Male NCr-nude mice (implanted subcutaneously with 1 mm^3 DU145 prostate carcinoma fragments in the flank) were sorted into treatment groups of five mice each. […] Dosing was initiated on Day 1. The antitumor compounds were given i.v. at an estimated maximum tolerated dose (MTD) appropriate for each agent on a qd x 1 schedule (single administration of compound). […] The vehicle was administered i.v. to control mice in Group 1 on the qd x 1 schedule. The study was terminated on Day 91. Treatment groups are detailed in Table 5.
# The mean days of survival is the number of days after which a neoplasm reached a size of 1.5 g and the animal was euthanized. A complete response is obtained if the tumor is not palpable at the end of the study. A partial response is obtained if the tumor shrinks to a size smaller than its size on Day 1 of the study. […]
# [2] = test system: A375 Human Melanoma Xenografts
# Method: as §1
# Female NCr-nude mice (implanted subcutaneously with 1 mm^3 A375 melanoma in the flank) were sorted into treatment groups of six mice each, except for the Taxotere group having seven mice each. […] Dosing was initiated on Day 1. The antitumor compounds were given i.v. at an estimated maximum tolerated dose (MTD) appropriate for each agent on a qd x 1 schedule (single administration of compound). […] Taxotere was given i.v. on a qd x 1 schedule at a dose of 70 mg/kg. The vehicle was administered i.v. to control mice in Group 1 on the qd x 1 schedule. Treatment groups are detailed in Table 9. The study was terminated on Day 60.
# The results are summarized in Table 10 and include mean days of survival (MDS), number of toxic deaths, number of survivors, number of complete or partial responses, and number with stable disease. The mean days of survival is the number of days after which a tumor reached a size of 2.0 g and the animal was euthanized. A complete response is obtained if the tumor is not palpable at the end of the study. A partial response is obtained if the tumor shrinks to a size smaller than its size on Day 1 of the study. […]
# [3] = test system: Panc-1 Human Pancreatic Carcinoma Xenografts
# Method: (§2) Other antitumor compounds were similarly formulated. […] The dosing volume was 0.3 mL per 20 g mouse.
# Female NCr-nude mice (6-8 weeks of age, implanted subcutaneously with 1 mm^3 Panc-1 pancreatic carcinoma fragments in the flank) were sorted into treatment groups of six mice each. […] Dosing was initiated on Day 1. The antitumor compounds were given i.v. at an estimated maximum tolerated dose (MTD) appropriate for each agent on a qd x 1 schedule (single administration of compound). […] Taxotere was given i.v. at a dose of 70 mg/kg on a qd x 1 schedule. The vehicle was given i.v. to control mice in Group 1 in each test on Day 1 (qd x 1) schedule. Treatment groups are detailed in Table 12. The study was terminated on Day 63.
# The mean days of survival is the number of days after which a neoplasm reached a size of 1.5 g and the animal was euthanized. A complete response is obtained if the tumor is not palpable at the end of the study. A partial response is obtained if the tumor shrinks to a size smaller than its size on Day 1 of the study.
# [4] = test system: VM46 Human Colon Carcinoma Xenografts
# Method: as §2
# Female NCr-nude mice (6-8 weeks of age, implanted subcutaneously with 1 mm^3 VM46 colon carcinoma fragments in the flank) were sorted into treatment groups of six mice each. […] Dosing was initiated on Day 1. The antitumor compounds were given i.v. at an estimated maximum tolerated dose (MTD) appropriate for each agent on a qd x 1 schedule (single administration of compound). […] Taxotere was given i.v. at a dose of 70 mg/kg on a qd x 1 schedule. The vehicle was given i.v. to control mice in Group 1 in each test on Day 1 (qd x 1) schedule. Treatment groups are detailed in Table 13. The VM46 study ended on Day 64.
# The results are summarized in table 14 and include mean days of survival (MDS), number of toxic deaths, number of survivors, number of complete or partial responses, and number with stable disease. The mean days of survival is the number of days after which a neoplasm reached a size of 1.5 g and the animal was euthanized. A complete response is obtained if the tumor is not palpable at the end of the study. A partial response is obtained if the tumor shrinks to a size smaller than its size on Day 1 of the study. […]
# [5] = test system: A375 Human Melanoma Xenograft; settings: 10 mice/group, study end Day 60
# Method: Female nu/nu mice (6-8 weeks of age; implanted subcutaneously with 1 mm^3 A375 melanoma fragments in the flank) were sorted into one control and four treatment groups of ten mice each (group mean tumor size of 96-98 mg). […] The study was terminated on Day 60.
# The mean days of survival is the number of days after which a neoplasm reached a size of 2.0 g and the animal was euthanized. A complete response is obtained if the tumor is not palpable at the end of the study. A partial response is obtained if the tumor shrinks to a size smaller than its size on Day 1 of the study.
# [6] = i.v. qd x 1 (mg/kg: Taxol 24, 1351 107.6, 1393 72.6, 1401 107.6, 1418 107.6, 1424 195.1), 5 mice/group, Day 91
# [7] = A375, i.v. qd x 1 (mg/kg: Taxol 24, 1351 107.6, 1393 72.6, 1401 107.6, 1418 107.6, 1424 195.1, Taxotere 70), Day 60
# [8] = i.v. qd x 1 at estimated MTD, 6 mice/group, study end Day 63
# [9] = 107.6 mg/kg i.v. qd x 1, 6 mice/group, study end Day 64
compound,measurement,setting,value
"CCC(=O)OC1CC2OCC2(OC(C)=O)C2C(OC(=O)c3ccccc3)C3(O)CC(OC(=O)C(O)C(NC(=O)OC(C)(C)C)c4ccco4)C(C)=C(C(O)C(=O)C12C)C3(C)C (stereo not drawn) [Compound 1393, 3'-Desphenyl-3'-(2-furyl)-7-propionyl taxotere]",Survivors,[1]; [6],4
same,Survivors,[2]; [7],0
same,survival extension compared to Group 1 controls,"[2]; A375, i.v. qd x 1 (mg/kg: Taxol 24, 1393 72.6, 1418 107.6, Taxotere 70)",250%
same,Survivors,[3]; [8],6
same,Survivors,"[4]; 72.6 mg/kg i.v. qd x 1, 6 mice/group, study end Day 64",1
same,Survivors,[5]; 104 mg/kg single oral bolus,9
same,Survivors,"[5]; oral 36.5 mg/kg on Days 1, 15, 29 and 43 (q14dx3, cumulative 109.5 mg/kg)",4
same,Survivors,"[5]; oral 73 mg/kg on Day 1, then 21.9 mg/kg on Days 11, 21, 31 and 41 (cumulative 160.6 mg/kg)",9
CCC(=O)O[C@H]1C[C@H]2OC[C@@]2(OC(C)=O)[C@H]2[C@H](OC(=O)c3ccccc3)[C@]3(O)C[C@H](OC(=O)[C@H](O)[C@H](C=C(C)C)NC(=O)OC(C)(C)C)C(C)=C([C@@H](O)C(=O)[C@]12C)C3(C)C [Compound 1351],mortality rate,[1]; 1351 107.6 mg/kg i.v. qd x 1,40%
same,weight loss in a number of the treated mice prior to their deaths,[1]; 1351 107.6 mg/kg i.v. qd x 1,over 20%
same,MDS (n),"[1]; i.v. qd x 1 (mg/kg: Taxol 24, 1351 107.6, 1393 72.6, 1401 107.6, 1418 107.6, 1424 195.1), 5 mice/group, 1.5 g cut-off, Day 91",62.6 ± 17.5 (2) days
same,Complete Response,[1]; [6],0
same,Partial Response,[1]; [6],1
same,Stable Disease,[1]; [6],0
same,Survivors,[1]; [6],1
same,Mean Score,"[1]; i.v. qd x 1 (mg/kg: Taxol 24, 1351 107.6, 1393 72.6, 1401 107.6, 1418 107.6, 1424 195.1), tumor score 1 to 10, group mean",2.6 ± 1.5
same,Complete Response,[2]; [7],0
same,Partial Response,[2]; [7],0
same,Stable Disease,[2]; [7],0
same,Survivors,[2]; [7],0
same,Mean Score,"[2]; A375, i.v. qd x 1 (mg/kg: Taxol 24, 1351 107.6, 1393 72.6, 1401 107.6, 1418 107.6, 1424 195.1, Taxotere 70), tumor score 1 to 10, group mean",0±0
same,mean group weight losses,"[2]; mouse, in vivo, iv",20-30%
same,Toxic Deaths,"[3]; Panc-1, i.v. qd x 1 (mg/kg: Taxol 24, 1351 75.32, 1393 72.6, 1401 107.6, 1418 107.6, 1424 195.1), 6 mice/group",no toxic deaths
same,Complete Response,[3]; [8],1
same,Mean Score,[3]; [8],5.7 ± 1.3
same,Partial Response,[3]; [8],1
same,Stable Disease,[3]; [8],2
same,Survivors,[3]; [8],4
same,Toxic Deaths,[3]; [8],0
same,MDS (n),"[3]; i.v. qd x 1 at estimated MTD, 6 mice/group, study end Day 63, days until tumor reached 1.5 g",42.5 ± 10.2 days
same,mean group weight losses,"[3]; mouse, in vivo, iv",3-13%
same,tolerability,"[3]; mouse, in vivo, iv",well-tolerated
same,Complete Response,[4]; [9],0
same,Mean Score,[4]; [9],4.5 ± 1.4
same,Partial Response,[4]; [9],1
same,Stable Disease,[4]; [9],2
same,Survivors,[4]; [9],3
same,Toxic Deaths,[4]; [9],0
same,MDS (n),"[4]; 107.6 mg/kg i.v. qd x 1, 6 mice/group, study end Day 64, days until tumor reached 1.5 g",43.7 ± 3.4 (3) days
same,Toxic Deaths,"[4]; VM46, i.v. qd x 1 at estimated MTD, 6 mice/group",no toxic deaths
same,maximal mean group weight losses,"[4]; mouse, in vivo, iv",3-14%
same,tolerability,"[4]; mouse, in vivo, iv",quite well-tolerated
